Source: ChEMBL document CHEMBL5291721, “A preclinical secondary pharmacology resource illuminates target-adverse drug reaction associations of marketed drugs” (Nat Commun, 2023)

Assays:
[1] = target: T1, 5-hydroxytryptamine receptor 2C (Homo sapiens, UniProt P28335)
T1 sequence (P28335 whole entry): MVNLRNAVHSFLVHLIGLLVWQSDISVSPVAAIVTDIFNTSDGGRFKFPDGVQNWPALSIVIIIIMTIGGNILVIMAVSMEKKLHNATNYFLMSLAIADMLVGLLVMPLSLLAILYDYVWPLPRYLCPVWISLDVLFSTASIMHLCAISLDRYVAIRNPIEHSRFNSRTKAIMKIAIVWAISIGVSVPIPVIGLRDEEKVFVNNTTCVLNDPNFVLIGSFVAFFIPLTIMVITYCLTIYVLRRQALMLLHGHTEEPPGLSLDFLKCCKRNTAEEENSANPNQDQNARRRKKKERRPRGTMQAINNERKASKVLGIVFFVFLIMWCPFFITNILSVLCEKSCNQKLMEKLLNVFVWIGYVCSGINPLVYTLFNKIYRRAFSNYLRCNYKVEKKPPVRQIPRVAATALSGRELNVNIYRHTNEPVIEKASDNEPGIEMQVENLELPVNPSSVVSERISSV

[2] = target: 3',5'-cyclic-AMP phosphodiesterase 4D (Homo sapiens, UniProt Q08499); type: functional
[3] = target: Growth hormone secretagogue receptor type 1 (Homo sapiens, UniProt Q92847)
[4] = target: T2, Prostaglandin G/H synthase 1 (Rattus norvegicus, UniProt Q63921); type: functional
T2 sequence (Q63921 whole entry): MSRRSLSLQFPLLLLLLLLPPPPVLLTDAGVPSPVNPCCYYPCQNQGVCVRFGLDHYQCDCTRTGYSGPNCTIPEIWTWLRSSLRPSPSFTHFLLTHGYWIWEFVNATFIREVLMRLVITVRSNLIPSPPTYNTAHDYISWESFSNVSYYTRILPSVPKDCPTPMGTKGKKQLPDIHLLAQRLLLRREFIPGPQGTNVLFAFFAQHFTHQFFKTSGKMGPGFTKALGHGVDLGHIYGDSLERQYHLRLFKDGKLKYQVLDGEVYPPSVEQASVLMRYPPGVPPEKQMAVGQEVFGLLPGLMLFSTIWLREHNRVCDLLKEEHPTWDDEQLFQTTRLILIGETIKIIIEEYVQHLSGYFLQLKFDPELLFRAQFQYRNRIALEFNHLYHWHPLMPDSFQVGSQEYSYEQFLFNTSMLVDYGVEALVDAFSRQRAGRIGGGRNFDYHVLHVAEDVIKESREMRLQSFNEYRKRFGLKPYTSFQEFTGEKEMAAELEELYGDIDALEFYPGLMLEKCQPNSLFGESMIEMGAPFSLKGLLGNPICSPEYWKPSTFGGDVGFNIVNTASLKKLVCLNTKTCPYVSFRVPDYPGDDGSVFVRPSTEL

[5] = target: Sodium-dependent noradrenaline transporter (Homo sapiens, UniProt P23975)
[6] = target: cGMP-inhibited 3',5'-cyclic phosphodiesterase 3A (Homo sapiens, UniProt Q14432); type: functional
[7] = target: Melanocortin receptor 3 (Homo sapiens, UniProt P41968)
[8] = target: 5-hydroxytryptamine receptor 2B (Homo sapiens, UniProt P41595); type: functional, cell-based
[9] = target: Bile salt export pump (Homo sapiens, UniProt O95342); type: functional
[10] = target: T3, Amine oxidase [flavin-containing] A (Homo sapiens, UniProt P21397); type: functional
T3 sequence (P21397 whole entry): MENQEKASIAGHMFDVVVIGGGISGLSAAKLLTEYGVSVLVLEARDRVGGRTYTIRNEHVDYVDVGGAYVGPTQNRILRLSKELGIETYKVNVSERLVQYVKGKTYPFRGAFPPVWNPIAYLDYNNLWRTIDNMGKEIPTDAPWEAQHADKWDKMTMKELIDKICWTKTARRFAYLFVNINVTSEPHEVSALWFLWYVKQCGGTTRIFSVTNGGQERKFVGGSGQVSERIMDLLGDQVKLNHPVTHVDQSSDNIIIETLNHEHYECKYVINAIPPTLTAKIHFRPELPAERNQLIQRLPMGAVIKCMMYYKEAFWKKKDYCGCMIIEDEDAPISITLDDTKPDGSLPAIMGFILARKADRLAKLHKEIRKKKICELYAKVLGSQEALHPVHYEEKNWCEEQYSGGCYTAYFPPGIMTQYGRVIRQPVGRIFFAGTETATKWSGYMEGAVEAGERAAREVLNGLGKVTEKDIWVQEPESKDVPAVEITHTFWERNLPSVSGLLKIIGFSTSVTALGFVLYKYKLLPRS

[11] = target: T4, Cholecystokinin receptor type A (Homo sapiens, UniProt P32238)
T4 sequence (P32238 whole entry): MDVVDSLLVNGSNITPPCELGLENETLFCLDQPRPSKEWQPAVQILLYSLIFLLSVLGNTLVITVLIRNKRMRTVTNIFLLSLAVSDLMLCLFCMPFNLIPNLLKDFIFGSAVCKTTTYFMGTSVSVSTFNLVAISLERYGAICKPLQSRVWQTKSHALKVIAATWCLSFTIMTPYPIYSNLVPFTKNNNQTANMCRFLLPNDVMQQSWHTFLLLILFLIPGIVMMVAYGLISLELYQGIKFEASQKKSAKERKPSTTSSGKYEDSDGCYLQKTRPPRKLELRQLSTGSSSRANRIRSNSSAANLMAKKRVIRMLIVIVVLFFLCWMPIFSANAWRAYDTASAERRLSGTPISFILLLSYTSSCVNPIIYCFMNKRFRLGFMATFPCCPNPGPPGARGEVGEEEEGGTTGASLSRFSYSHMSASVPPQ

[12] = target: T5, Alpha-2A adrenergic receptor (Homo sapiens, UniProt P08913); type: functional, cell-based
T5 sequence (P08913 whole entry): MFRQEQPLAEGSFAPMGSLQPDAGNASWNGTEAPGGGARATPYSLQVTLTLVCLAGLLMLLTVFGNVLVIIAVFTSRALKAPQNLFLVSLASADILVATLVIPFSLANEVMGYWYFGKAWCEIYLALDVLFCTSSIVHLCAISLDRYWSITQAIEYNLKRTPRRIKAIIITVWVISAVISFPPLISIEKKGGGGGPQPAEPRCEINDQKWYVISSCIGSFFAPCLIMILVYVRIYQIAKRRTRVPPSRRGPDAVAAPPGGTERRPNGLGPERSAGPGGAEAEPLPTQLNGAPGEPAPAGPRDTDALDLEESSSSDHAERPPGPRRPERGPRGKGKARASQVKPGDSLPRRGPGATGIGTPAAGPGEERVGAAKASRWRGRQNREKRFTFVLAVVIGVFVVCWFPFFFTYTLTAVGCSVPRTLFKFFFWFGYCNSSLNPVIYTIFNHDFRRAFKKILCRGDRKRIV
Further: assay procedure not described here.

Chain of 3',5'-cyclic-AMP phosphodiesterase 4D (Q08499 whole entry): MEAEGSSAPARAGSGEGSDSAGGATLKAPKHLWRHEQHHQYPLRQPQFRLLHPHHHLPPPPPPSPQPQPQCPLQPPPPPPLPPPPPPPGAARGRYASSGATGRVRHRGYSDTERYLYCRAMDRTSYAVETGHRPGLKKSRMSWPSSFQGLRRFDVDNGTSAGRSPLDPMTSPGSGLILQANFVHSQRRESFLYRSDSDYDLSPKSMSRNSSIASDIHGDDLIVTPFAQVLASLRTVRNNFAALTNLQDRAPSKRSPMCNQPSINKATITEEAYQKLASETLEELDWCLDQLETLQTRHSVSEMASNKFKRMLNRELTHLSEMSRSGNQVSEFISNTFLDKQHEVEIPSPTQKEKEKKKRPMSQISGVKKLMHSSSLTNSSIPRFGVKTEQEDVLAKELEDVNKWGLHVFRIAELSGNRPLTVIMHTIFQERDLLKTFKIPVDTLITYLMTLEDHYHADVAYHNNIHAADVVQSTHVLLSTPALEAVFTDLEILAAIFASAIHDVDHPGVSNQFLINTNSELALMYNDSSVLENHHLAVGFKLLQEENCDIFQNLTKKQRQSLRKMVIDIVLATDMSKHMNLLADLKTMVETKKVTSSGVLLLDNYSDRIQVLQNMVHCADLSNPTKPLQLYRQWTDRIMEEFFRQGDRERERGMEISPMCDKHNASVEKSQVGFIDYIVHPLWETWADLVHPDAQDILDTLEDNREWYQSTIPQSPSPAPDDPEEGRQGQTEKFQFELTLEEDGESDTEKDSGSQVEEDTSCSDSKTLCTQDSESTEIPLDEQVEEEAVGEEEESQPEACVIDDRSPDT
Chain of Bile salt export pump (O95342 whole entry): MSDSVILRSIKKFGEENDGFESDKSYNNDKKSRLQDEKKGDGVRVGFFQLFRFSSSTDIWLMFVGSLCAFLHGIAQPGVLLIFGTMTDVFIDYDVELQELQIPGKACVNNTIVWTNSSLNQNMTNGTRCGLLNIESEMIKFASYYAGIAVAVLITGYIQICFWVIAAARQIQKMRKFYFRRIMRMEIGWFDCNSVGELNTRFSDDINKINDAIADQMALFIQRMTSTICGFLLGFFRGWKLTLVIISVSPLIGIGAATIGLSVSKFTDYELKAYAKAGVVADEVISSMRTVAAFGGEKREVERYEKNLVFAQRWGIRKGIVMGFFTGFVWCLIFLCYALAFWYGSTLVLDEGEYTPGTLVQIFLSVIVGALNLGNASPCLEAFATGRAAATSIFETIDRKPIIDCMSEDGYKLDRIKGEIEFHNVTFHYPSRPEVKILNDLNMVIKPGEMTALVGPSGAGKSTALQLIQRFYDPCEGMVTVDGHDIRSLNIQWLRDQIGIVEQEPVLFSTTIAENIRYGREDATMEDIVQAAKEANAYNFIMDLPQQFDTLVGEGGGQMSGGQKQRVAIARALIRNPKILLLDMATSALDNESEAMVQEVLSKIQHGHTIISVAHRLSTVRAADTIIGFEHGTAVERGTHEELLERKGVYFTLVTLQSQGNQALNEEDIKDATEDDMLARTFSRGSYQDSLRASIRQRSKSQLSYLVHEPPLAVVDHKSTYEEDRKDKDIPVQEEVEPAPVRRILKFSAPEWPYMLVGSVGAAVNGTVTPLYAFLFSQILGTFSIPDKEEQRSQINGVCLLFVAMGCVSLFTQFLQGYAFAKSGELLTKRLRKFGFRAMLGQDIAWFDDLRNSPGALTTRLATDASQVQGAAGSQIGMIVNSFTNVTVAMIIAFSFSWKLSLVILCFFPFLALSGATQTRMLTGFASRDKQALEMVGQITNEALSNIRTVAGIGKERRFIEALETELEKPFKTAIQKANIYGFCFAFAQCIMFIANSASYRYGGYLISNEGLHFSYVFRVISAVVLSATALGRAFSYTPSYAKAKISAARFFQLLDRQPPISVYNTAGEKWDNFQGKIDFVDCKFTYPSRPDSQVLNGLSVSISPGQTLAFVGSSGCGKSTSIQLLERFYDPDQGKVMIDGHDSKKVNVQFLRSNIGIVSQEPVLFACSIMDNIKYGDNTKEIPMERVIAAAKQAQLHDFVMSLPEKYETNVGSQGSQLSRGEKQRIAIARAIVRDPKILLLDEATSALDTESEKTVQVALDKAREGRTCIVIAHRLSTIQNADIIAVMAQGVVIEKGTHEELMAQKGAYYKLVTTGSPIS
Chain of Sodium-dependent noradrenaline transporter (P23975 whole entry): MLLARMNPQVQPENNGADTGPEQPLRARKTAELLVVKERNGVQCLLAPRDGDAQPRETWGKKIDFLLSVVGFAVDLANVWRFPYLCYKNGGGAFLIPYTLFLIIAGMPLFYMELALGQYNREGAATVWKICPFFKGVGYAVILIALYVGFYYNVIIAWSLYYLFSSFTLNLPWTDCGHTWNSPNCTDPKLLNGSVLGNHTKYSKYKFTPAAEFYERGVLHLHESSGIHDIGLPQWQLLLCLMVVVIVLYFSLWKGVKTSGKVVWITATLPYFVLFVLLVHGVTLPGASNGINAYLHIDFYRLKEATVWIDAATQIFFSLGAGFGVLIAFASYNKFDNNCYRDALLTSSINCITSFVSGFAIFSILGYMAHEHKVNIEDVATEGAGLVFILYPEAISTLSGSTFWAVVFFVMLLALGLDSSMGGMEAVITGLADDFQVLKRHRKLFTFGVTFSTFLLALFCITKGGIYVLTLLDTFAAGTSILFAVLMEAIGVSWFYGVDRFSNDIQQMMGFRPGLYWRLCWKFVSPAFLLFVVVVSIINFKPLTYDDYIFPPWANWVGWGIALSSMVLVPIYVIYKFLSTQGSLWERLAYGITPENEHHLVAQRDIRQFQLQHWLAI
Chain of Growth hormone secretagogue receptor type 1 (Q92847 whole entry): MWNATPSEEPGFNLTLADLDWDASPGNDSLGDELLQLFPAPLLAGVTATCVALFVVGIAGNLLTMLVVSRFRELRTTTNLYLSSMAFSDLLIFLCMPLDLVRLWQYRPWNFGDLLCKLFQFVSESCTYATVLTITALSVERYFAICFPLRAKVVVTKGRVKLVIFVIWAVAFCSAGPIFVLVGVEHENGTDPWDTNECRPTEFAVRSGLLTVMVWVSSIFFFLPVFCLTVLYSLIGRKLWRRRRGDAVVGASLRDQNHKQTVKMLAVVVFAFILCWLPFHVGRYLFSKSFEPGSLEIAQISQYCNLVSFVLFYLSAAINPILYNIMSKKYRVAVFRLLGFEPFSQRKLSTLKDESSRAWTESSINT
Chain of cGMP-inhibited 3',5'-cyclic phosphodiesterase 3A (Q14432 whole entry): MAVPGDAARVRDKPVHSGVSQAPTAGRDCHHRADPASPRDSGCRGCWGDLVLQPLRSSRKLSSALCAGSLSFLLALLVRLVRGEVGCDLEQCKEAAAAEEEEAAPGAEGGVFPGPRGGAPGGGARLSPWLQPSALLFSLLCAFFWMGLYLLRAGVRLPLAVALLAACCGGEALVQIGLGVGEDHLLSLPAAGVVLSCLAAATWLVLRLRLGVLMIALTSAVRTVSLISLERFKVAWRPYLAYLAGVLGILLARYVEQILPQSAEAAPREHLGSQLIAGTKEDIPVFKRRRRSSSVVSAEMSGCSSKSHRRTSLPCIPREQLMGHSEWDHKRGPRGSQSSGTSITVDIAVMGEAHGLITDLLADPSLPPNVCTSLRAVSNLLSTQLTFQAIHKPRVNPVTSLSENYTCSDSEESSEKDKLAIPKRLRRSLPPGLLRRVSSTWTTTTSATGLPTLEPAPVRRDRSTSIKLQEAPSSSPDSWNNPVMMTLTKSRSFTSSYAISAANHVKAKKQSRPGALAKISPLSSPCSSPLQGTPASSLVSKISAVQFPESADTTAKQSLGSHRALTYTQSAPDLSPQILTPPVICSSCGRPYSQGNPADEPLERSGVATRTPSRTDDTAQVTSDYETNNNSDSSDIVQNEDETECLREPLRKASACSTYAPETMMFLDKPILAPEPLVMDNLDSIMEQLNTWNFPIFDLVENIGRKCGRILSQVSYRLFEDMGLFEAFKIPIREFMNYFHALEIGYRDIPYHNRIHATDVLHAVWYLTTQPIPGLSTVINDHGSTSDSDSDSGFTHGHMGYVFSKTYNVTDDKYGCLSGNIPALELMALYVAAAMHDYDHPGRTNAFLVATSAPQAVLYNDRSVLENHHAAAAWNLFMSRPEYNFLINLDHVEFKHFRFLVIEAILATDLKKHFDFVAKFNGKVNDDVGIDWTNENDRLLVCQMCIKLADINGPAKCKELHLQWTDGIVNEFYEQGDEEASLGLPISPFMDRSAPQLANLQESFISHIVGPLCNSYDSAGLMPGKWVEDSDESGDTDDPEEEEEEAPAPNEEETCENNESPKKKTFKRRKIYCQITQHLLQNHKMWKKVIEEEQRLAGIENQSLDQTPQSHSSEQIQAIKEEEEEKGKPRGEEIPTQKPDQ
Chain of 5-hydroxytryptamine receptor 2B (P41595 whole entry): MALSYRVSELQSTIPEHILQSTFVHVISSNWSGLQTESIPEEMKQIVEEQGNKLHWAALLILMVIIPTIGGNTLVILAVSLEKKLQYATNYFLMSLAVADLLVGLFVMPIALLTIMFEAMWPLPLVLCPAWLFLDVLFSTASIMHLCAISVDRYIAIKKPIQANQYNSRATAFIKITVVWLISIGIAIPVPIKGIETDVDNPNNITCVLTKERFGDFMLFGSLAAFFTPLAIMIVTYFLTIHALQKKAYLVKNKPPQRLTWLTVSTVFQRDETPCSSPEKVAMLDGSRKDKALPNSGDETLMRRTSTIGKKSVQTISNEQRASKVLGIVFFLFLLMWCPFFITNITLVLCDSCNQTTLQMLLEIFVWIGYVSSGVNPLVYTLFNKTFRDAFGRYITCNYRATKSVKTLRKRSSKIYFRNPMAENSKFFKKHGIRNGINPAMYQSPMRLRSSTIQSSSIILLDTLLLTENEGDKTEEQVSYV
Chain of Melanocortin receptor 3 (P41968 whole entry): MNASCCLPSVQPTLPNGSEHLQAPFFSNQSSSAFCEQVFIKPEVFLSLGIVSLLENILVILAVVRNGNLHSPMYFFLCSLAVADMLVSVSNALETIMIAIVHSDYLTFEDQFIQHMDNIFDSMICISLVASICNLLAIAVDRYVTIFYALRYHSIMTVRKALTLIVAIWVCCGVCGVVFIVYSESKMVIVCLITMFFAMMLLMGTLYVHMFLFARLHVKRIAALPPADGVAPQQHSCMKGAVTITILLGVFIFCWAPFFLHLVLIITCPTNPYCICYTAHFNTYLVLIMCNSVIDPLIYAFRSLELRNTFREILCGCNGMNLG

Row | SMILES | AC50 [1] [µM] | AC50 [2] [µM] | AC50 [3] [µM] | AC50 [4] [µM] | AC50 [5] [µM] | AC50 [6] [µM] | AC50 [7] [µM] | AC50 [8] [µM] | AC50 [9] [µM] | AC50 [10] [µM] | AC50 [11] [µM] | AC50 [12] [µM]
1 | CCc1ccc(CCOc2ccc(CC3SC(=O)NC3=O)cc2)nc1 (centres undefined) [PIOGLITAZONE] | > 10 | > 10 | > 30 | > 30 | > 30 | > 30 | > 30 | > 10 | 0.1 | > 10 | > 30 | > 10
2 | CC(C(=O)O)c1ccc(N2CC=CC2)c(Cl)c1 (centres undefined) [PIRPROFEN] | > 30 | > 30 | > 30 | > 30 | > 10 | > 30 | > 30 | > 10 | 270 | > 10 | > 30 | > 10
3 | CC[C@H](C)C(=O)O[C@H]1C[C@H](O)C=C2C=C[C@H](C)[C@H](CC[C@@H](O)C[C@@H](O)CC(=O)O)[C@H]21 [PRAVASTATIN] | > 30 | > 30 | > 30 | > 30 | > 30 | > 30 | > 30 | > 30 | > 100 | > 30 | > 30 | > 30
4 | NC(=O)c1cnccn1 [PYRAZINAMIDE] | > 30 | > 30 | > 30 | > 30 | > 30 | > 30 | 12.6 | > 30 | > 300 | > 30 | > 30 | > 30
5 | CC(C(=O)O)c1ccc(C(=O)c2cccs2)cc1 (centres undefined) [SUPROFEN] | > 30 | > 30 | > 10 | 0.284 | > 10 | > 30 | > 10 | > 10 | > 300 | > 10 | > 10 | > 10
6 | CS(=O)(=O)c1ccc([C@@H](O)[C@@H](CO)NC(=O)C(Cl)Cl)cc1 [THIAMPHENICOL] | > 30 | > 30 | > 30 | > 30 | > 30 | > 30 | > 30 | > 30 | > 300 | > 30 | > 30 | > 30
7 | Cc1ccc(C(=O)c2cc(O)c(O)c([N+](=O)[O-])c2)cc1 [TOLCAPONE] | > 10 | > 30 | > 10 | 12.7 | 12.9 | 18 | > 10 | > 10 | 30.3 | > 10 | > 10 | > 10
